Test results reported in ChEMBL document CHEMBL1156052, “Discovery of 1-[4-(3-chlorophenylamino)-1-methyl-1H-pyrrolo[3,2-c]pyridin-7-yl]-1-morpholin-4-ylmethanone (GSK554418A), a brain penetrant 5-azaindole CB2 agonist for the treatment of chronic pain” (J Med Chem, 2009).
Converted amounts (≈) assume the structure as drawn. The source made the active and inactive calls. The calls are words filed in the database; no cut-off is given here.

What was measured:
[1] = target: T1, Cannabinoid receptor 1 (Homo sapiens, UniProt P21554); assay: Agonist activity at human recombinant cannabinoid CB1 receptor expressed in MMY23 Saccharomyces cerevisiae assessed as degradation of FDGlu to fluorescein after 24 hrs by spectrofluorimetry; assay type: functional
[2] = Solubility in simulated intestinal fluid at pH 5; assay type: physicochemical
[3] = target: T2, Cannabinoid receptor 2 (Homo sapiens, UniProt P34972); assay: Agonist activity at human recombinant cannabinoid CB2 receptor expressed in MMY23 Saccharomyces cerevisiae assessed as degradation of FDGlu to fluorescein after 24 hrs by spectrofluorimetry relative to HU210; assay type: functional
[4] = target: T2, Cannabinoid receptor 2; assay: Agonist activity at human recombinant cannabinoid CB2 receptor expressed in MMY23 Saccharomyces cerevisiae assessed as degradation of FDGlu to fluorescein after 24 hrs by spectrofluorimetry; assay type: functional
[5] = Efflux ratio of apparent permeability […] side of MDR1-expressing MDCK2 cells after 60 mins by liquid scintillation counting; assay type: ADME, cell-based, Canis lupus familiaris; details: dog, mdck-ii, 1 h
[6] = system: Rattus norvegicus; assay: Analgesic activity in rat joint model of chronic pain at 5 mg/kg, po BID for 5 days; assay type: functional, organism-based; design: dose 5 mg/kg
[7] = Binding affinity to adrenergic alpha1 receptor at 1 uM
[8] = Binding affinity to central benzodiazepine receptor at 1 uM
[9] = Binding affinity to GABA receptor at 1 uM
[10] = target: Adenosine receptor A1 (Homo sapiens) (UniProt P30542); assay: Binding affinity to human adenosine A1 receptor at 1 uM
[11] = target: Alpha-2A adrenergic receptor (Homo sapiens) (UniProt P08913); assay: Binding affinity to adrenergic alpha2 receptor at 1 uM
[12] = target: Muscarinic acetylcholine receptor M4 (Homo sapiens) (UniProt P08173); assay: Binding affinity to human muscarinic M4 receptor at 1 uM
[13] = target: D(2) dopamine receptor (Homo sapiens) (UniProt P14416); assay: Binding affinity to human dopamine D2S receptor at 1 uM
[14] = target: Histamine H1 receptor (Homo sapiens) (UniProt P35367); assay: Binding affinity to human histamine H1 receptor at 1 uM
[15] = target: Muscarinic acetylcholine receptor M2 (Homo sapiens) (UniProt P08172); assay: Binding affinity to human muscarinic M2 receptor at 1 uM
[16] = target: C-X-C chemokine receptor type 2 (Homo sapiens) (UniProt P25025); assay: Binding affinity to human CXCR2 receptor at 1 uM
[17] = target: Substance-K receptor (Homo sapiens) (UniProt P21452); assay: Binding affinity to human NK2 receptor at 1 uM
[18] = target: Beta-1 adrenergic receptor (Homo sapiens) (UniProt P08588); assay: Binding affinity to human beta-1 adrenergic receptor at 1 uM
[19] = target: Type-1 angiotensin II receptor (Homo sapiens) (UniProt P30556); assay: Binding affinity to human AT1 receptor at 1 uM
[20] = target: B2 bradykinin receptor (Homo sapiens) (UniProt P30411); assay: Binding affinity to human bradykinin B2 receptor at 1 uM
[21] = target: Adenosine receptor A2a (Homo sapiens) (UniProt P29274); assay: Binding affinity to human adenosine A2A receptor at 1 uM
[22] = target: Melatonin receptor type 1A (Homo sapiens) (UniProt P48039); assay: Binding affinity to human ML1 receptor at 1 uM
[23] = target: Histamine H2 receptor (Homo sapiens) (UniProt P25021); assay: Binding affinity to human histamine H2 receptor at 1 uM
[24] = target: Muscarinic acetylcholine receptor M1 (Homo sapiens) (UniProt P11229); assay: Binding affinity to human muscarinic M1 receptor at 1 uM
[25] = target: Endothelin-1 receptor (Homo sapiens) (UniProt P25101); assay: Binding affinity to human ETA receptor at 1 uM
[26] = system: Rattus norvegicus; assay: Induction of hypothermia in rat at 130 mg/kg, po after 5 hrs; assay type: organism-based; design: dose 130 mg/kg, route oral; details: in vivo
[27] = Drug level in rat blood at 130 mg/kg, po after 3 hrs; assay type: ADME, organism-based; design: dose 130 mg/kg, route oral; details: read-out: Drug uptake
[28] = target: Cannabinoid receptor 1 (Rattus norvegicus) (UniProt P20272); assay: Agonist activity at cannabinoid CB1 receptor at rat cerebellum by GTPgammaS binding assay relative to HU210; assay type: functional
[29] = target: Galanin receptor type 2 (Homo sapiens) (UniProt O43603); assay: Binding affinity to human GAL2 receptor at 1 uM
[30] = target: Cholecystokinin receptor type A (Homo sapiens) (UniProt P32238); assay: Binding affinity to human CCKA receptor at 1 uM
[31] = target: Muscarinic acetylcholine receptor M3 (Homo sapiens) (UniProt P20309); assay: Binding affinity to human muscarinic M3 receptor at 1 uM
[32] = target: Adenosine receptor A3 (Homo sapiens) (UniProt P0DMS8); assay: Binding affinity to human adenosine A3 receptor at 1 uM
[33] = target: Melanocortin receptor 4 (Homo sapiens) (UniProt P32245); assay: Binding affinity to human MC4 receptor at 1 uM
[34] = target: D(1A) dopamine receptor (Homo sapiens) (UniProt P21728); assay: Binding affinity to human dopamine D1 receptor at 1 uM
[35] = target: Cannabinoid receptor 1 (Rattus norvegicus, UniProt P20272); assay: Agonist activity at cannabinoid CB1 receptor at rat cerebellum by GTPgammaS binding assay; assay type: functional, tissue-based
[36] = system: Rattus norvegicus; assay: Induction of hypothermia in rat at 130 mg/kg, po after 1 to 3 hrs; assay type: organism-based; design: dose 130 mg/kg, route oral; details: in vivo
[37] = Drug level in rat blood at 130 mg/kg, po after 1 hr; assay type: ADME, organism-based; design: dose 130 mg/kg, route oral; details: read-out: Drug uptake
[38] = target: T1, Cannabinoid receptor 1; assay: Agonist activity at human recombinant cannabinoid CB1 receptor expressed in MMY23 Saccharomyces cerevisiae assessed as degradation of FDGlu to fluorescein at 30 uM after 24 hrs by spectrofluorimetry; assay type: functional
[39] = species: Homo sapiens; assay: Selectivity ratio of EC50 for human recombinant cannabinoid CB1 receptor to EC50 for human recombinant cannabinoid CB2 receptor
[40] = target: T1, Cannabinoid receptor 1; assay: Agonist activity at human recombinant cannabinoid CB1 receptor expressed in MMY23 Saccharomyces cerevisiae assessed as degradation of FDGlu to fluorescein after 24 hrs by spectrofluorimetry relative to HU210; assay type: functional
[41] = system: Rattus norvegicus; assay: Analgesic activity in rat joint model of chronic pain at 1 to 10 mg/kg, po BID for 5 days; assay type: functional, organism-based
[42] = target: Cytochrome P450 2C9 (Homo sapiens, UniProt P11712); assay: Inhibition of CYP2C9; assay type: ADME
[43] = system: Rattus norvegicus; assay: Antihyperalgesic activity in po dosed complete Freund's adjuvant rat model of inflammatory pain assessed as reduction of hypersensitivity administered as single dose; assay type: functional
[44] = Dissociation constant, pKa of the compound; assay type: physicochemical
[45] = Ratio of drug level in brain to blood in mouse; assay type: ADME, tissue-based
[46] = target: Cytochrome P450 2C19 (Homo sapiens, UniProt P33261); assay: Inhibition of CYP2C19; assay type: ADME
[47] = target: Cytochrome P450 2D6 (Homo sapiens, UniProt P10635); assay: Inhibition of CYP2D6; assay type: ADME
[48] = target: Cytochrome P450 1A2 (Homo sapiens, UniProt P05177); assay: Inhibition of CYP1A2; assay type: ADME
[49] = target: Cytochrome P450 3A4 (Homo sapiens, UniProt P08684); assay: Inhibition of CYP3A4; assay type: ADME
[50] = Intrinsic clearance in human liver microsomes; assay type: ADME, Microsome
[51] = Intrinsic clearance in rat liver microsomes; assay type: ADME, Microsome

T1 sequence (P21554 whole entry): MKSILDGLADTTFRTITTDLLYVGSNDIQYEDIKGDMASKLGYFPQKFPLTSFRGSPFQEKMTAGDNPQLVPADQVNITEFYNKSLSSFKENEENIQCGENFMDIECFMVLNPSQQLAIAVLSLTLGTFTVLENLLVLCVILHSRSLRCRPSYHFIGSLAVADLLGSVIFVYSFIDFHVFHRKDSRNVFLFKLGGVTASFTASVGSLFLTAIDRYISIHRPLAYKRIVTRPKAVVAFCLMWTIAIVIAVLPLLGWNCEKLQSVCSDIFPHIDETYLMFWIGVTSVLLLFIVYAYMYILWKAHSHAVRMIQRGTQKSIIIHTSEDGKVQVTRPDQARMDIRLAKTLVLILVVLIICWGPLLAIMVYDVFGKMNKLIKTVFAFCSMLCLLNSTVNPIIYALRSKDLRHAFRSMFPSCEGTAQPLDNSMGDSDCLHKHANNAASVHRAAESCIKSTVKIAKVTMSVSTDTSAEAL
T2 sequence (P34972 whole entry): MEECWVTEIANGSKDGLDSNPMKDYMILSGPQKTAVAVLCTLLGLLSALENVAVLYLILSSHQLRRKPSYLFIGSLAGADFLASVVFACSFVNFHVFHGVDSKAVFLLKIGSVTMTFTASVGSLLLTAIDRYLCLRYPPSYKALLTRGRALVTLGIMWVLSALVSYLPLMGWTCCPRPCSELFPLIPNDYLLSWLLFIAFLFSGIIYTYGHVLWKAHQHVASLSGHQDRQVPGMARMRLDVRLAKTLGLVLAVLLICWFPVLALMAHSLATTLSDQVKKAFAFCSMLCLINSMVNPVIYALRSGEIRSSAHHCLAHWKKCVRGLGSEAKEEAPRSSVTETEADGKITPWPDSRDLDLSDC
Cytochrome P450 2D6, sequence (P10635 whole entry): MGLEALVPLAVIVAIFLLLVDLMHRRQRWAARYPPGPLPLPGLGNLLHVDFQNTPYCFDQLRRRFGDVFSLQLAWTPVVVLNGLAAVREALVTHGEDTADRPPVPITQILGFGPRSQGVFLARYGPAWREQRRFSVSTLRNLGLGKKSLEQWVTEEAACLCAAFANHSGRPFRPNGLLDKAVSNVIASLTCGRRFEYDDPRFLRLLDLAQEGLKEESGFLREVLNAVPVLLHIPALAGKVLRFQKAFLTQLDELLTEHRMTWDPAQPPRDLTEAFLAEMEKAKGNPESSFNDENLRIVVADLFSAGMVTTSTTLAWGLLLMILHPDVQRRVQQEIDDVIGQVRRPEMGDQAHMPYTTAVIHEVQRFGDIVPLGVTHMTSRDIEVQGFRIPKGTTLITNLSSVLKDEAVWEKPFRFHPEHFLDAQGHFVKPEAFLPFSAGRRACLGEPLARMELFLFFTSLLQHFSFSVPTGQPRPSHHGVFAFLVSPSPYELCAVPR
Adenosine receptor A2a (Homo sapiens), sequence (P29274 whole entry): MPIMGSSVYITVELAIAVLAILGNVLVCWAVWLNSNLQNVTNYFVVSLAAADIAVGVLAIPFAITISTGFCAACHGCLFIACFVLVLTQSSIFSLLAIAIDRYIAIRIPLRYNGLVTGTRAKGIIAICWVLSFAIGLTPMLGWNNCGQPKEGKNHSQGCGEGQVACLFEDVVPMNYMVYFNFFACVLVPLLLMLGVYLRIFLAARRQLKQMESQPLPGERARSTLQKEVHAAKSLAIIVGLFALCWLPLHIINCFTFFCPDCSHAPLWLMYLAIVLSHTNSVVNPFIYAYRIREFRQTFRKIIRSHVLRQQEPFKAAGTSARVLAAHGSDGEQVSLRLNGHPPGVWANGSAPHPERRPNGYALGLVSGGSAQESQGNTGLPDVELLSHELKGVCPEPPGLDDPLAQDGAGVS
Muscarinic acetylcholine receptor M1 (Homo sapiens), sequence (P11229 whole entry): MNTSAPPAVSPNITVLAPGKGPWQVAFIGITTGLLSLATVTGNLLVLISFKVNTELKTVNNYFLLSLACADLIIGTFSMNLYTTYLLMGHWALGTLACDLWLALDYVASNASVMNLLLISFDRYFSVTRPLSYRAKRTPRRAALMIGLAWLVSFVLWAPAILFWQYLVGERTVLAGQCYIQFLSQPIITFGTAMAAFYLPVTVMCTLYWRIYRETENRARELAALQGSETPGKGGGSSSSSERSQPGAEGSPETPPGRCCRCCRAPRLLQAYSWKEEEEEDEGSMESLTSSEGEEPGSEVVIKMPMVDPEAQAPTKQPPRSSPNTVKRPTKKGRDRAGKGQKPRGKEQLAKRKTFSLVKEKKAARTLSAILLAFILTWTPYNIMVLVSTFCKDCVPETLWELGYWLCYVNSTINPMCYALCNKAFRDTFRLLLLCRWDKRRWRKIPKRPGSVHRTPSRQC
Alpha-2A adrenergic receptor (Homo sapiens), sequence (P08913 whole entry): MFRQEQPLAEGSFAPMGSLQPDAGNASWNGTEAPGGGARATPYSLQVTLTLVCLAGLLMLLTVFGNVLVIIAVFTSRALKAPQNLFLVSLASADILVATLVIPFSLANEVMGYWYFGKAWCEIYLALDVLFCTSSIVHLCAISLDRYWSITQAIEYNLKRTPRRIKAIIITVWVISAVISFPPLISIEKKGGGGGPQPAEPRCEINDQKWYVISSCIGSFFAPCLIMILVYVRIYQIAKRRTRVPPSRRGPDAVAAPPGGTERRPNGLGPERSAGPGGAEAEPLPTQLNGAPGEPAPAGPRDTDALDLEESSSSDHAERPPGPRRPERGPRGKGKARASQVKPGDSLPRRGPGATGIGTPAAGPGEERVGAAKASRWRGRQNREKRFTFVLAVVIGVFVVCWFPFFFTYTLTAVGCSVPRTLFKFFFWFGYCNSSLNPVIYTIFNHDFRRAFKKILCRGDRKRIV
Endothelin-1 receptor (Homo sapiens), sequence (P25101 whole entry): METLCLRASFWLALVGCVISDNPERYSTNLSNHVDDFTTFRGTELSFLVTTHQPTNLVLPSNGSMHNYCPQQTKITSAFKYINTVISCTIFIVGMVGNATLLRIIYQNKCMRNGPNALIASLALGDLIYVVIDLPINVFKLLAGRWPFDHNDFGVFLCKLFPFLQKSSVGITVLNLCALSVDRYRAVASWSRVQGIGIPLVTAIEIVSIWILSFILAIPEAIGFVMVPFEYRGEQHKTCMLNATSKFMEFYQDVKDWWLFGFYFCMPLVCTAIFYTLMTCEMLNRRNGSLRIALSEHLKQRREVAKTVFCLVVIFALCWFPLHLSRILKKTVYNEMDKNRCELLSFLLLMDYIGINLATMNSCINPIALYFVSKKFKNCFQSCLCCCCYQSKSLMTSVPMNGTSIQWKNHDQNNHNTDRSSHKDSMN
Melatonin receptor type 1A (Homo sapiens), sequence (P48039 whole entry): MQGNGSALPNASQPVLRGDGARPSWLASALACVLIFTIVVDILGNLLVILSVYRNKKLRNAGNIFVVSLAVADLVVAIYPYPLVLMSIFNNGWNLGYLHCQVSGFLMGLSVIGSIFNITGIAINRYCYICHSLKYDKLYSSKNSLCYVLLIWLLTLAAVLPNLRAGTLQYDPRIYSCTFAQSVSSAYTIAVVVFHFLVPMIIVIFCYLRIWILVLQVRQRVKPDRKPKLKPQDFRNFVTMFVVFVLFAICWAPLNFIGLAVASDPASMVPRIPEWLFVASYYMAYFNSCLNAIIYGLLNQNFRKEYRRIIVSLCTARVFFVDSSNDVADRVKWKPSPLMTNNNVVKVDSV
C-X-C chemokine receptor type 2 (Homo sapiens), sequence (P25025 whole entry): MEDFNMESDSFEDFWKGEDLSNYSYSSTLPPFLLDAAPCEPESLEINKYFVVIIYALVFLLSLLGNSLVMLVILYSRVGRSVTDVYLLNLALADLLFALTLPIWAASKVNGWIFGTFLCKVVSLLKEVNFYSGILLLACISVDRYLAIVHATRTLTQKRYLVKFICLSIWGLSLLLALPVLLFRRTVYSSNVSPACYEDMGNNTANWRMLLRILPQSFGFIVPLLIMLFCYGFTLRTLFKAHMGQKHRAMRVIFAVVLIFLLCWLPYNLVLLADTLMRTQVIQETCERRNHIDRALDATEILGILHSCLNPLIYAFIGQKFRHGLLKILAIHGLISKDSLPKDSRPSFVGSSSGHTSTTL
Histamine H2 receptor (Homo sapiens), sequence (P25021 whole entry): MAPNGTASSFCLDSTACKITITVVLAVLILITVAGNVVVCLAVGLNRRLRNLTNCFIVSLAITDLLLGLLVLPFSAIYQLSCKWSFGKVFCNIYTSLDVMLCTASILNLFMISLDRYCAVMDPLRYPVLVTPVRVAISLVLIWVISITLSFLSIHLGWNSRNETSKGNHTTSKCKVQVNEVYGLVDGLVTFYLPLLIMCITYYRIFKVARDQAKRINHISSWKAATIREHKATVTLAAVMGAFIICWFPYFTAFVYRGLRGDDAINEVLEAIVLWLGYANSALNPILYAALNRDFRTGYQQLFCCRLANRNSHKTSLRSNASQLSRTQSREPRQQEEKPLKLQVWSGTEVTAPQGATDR
Histamine H1 receptor (Homo sapiens), sequence (P35367 whole entry): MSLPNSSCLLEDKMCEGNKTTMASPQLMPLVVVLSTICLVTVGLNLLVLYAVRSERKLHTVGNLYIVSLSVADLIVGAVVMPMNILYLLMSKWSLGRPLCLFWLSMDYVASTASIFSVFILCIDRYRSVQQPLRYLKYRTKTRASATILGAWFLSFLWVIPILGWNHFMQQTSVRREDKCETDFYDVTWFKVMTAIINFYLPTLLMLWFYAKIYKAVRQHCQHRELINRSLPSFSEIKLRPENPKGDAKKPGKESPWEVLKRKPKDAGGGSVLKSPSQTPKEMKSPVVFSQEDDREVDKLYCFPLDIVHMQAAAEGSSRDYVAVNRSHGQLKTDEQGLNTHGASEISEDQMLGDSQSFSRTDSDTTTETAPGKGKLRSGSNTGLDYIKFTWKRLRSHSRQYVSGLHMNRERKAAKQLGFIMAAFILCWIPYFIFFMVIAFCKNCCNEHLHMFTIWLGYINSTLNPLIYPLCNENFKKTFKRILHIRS

Q: With O=C(NCC1CCOCC1)c1cnc(Nc2ccc(Cl)cc2Cl)nc1C(F)(F)F [GW842166X] as the molecule, how does the EC50 [1] read?
A: > 30 µM

Q: What about the solubility [2] of the same molecule?
A: 10 µg/mL (≈ 22.3 µM)

Q: For Cc1c[nH]c2c(Nc3cccc(Cl)c3)ncc(C(=O)N3CCCCCC3)c12, which EC50 [1] is on record?
A: > 30 µM

Q: And the Efficacy [3]?
A: 76%

Q: And the EC50 [4]?
A: 0.107 µM

Q: With CS(=O)(=O)c1ccc(C2=C(c3ccccc3)C(=O)OC2)cc1 [ROFECOXIB] as the molecule, how does the Ratio [5] read?
A: 74

Q: What about the Activity [6] of the same molecule?
A: Active

Q: For Cc1c[nH]c2c(NC3CCOCC3)ncc(C(=O)N3CCOCC3)c12, which EC50 [1] is on record?
A: > 30 µM

Q: What about the Efficacy [3] of the same molecule?
A: 84%

Q: What about the EC50 [4] of the same molecule?
A: 3.3 µM

Q: With Cc1c[nH]c2c(Nc3cccc(Cl)c3)ncc(C(=O)NCC3CCOCC3)c12 as the molecule, how does the EC50 [1] read?
A: > 30 µM

Q: What about the Efficacy [3] of the same molecule?
A: 95%

Q: What about the EC50 [4] of the same molecule?
A: 0.265 µM

Q: For Cc1c[nH]c2c(Nc3cccc(Cl)c3)ncc(C(=O)NCc3ccc(F)cc3)c12, which EC50 [1] is on record?
A: > 30 µM

Q: And the Efficacy [3]?
A: 58%

Q: What about the EC50 [4] of the same molecule?
A: 0.145 µM

Q: Which Activity [7] does the source give for Cn1ccc2c(Nc3cccc(Cl)c3)ncc(Br)c21 here?
A: < 10%

Q: What about the Activity [8] of the same molecule?
A: < 10%

Q: And the Activity [9]?
A: < 10%

Q: And the Activity [10]?
A: < 10%

Q: What about the Activity [11] of the same molecule?
A: 25%

Q: And the Activity [12]?
A: < 10%

Q: What about the Activity [13] of the same molecule?
A: < 10%

Q: What about the Activity [14] of the same molecule?
A: < 10%

Q: And the Activity [15]?
A: < 10%

Q: And the Activity [16]?
A: < 10%

Q: What about the Activity [17] of the same molecule?
A: < 10%

Q: And the Activity [18]?
A: < 10%

Q: What about the Activity [19] of the same molecule?
A: < 10%

Q: And the Activity [20]?
A: < 10%

Q: And the Activity [21]?
A: < 10%

Q: What about the Activity [22] of the same molecule?
A: < 10%

Q: And the Activity [23]?
A: < 10%

Q: What about the Activity [24] of the same molecule?
A: < 10%

Q: What about the Activity [25] of the same molecule?
A: < 10%

Q: What about the Activity [26] of the same molecule?
A: Toxic

Q: What about the concentration at 3 h [27] of the same molecule?
A: 14.7 µM

Q: And the Efficacy [28]?
A: 59%

Q: What about the Activity [29] of the same molecule?
A: < 10%

Q: What about the Activity [30] of the same molecule?
A: < 10%

Q: What about the Activity [31] of the same molecule?
A: < 10%

Q: And the Activity [32]?
A: < 10%

Q: And the Activity [33]?
A: < 10%

Q: What about the Activity [34] of the same molecule?
A: < 10%

Q: And the EC50 [35]?
A: 2.51 µM

Q: And the Activity [36]?
A: Non-toxic

Q: And the concentration at 1 h [37]?
A: 10.9 µM

Q: For Cc1c[nH]c2c(Nc3ccccc3Cl)ncc(C(=O)N3CCOCC3)c12, which EC50 [1] is on record?
A: 15.8 µM

Q: What about the Activity [38] of the same molecule?
A: inactive

Q: What about the Ratio EC50 [39] of the same molecule?
A: > 100

Q: What about the Efficacy [40] of the same molecule?
A: 56%

Q: And the Efficacy [3]?
A: 82%

Q: And the EC50 [4]?
A: 0.123 µM

Q: What does the source list for COc1cccc(Nc2ncc(C(=O)N3CCOCC3)c3c(C)c[nH]c23)c1?
A: EC50 [1]: 25.1 µM; Activity [38]: inactive; Efficacy [40]: 69%; Efficacy [3]: 83%; EC50 [4]: 0.048 µM

Q: Which EC50 [1] does the source give for COc1ccccc1Nc1ncc(C(=O)N2CCOCC2)c2c(C)c[nH]c12 here?
A: > 10 µM

Q: And the Activity [38]?
A: inactive

Q: And the Ratio EC50 [39]?
A: > 100

Q: And the Efficacy [3]?
A: 72%

Q: What about the EC50 [4] of the same molecule?
A: 0.349 µM

Q: Which results are given for Cc1c[nH]c2c(Nc3cccc(Cl)c3)ncc(C(=O)N3CCOCC3)c12?
A: Activity [41]: inactive; Ratio [5]: 74; IC50 [42]: 4.7 µM; EC50 [1]: 10 µM; solubility [2]: 160 µg/mL (≈ 431 µM); ED50 [43]: 0.12 mg/kg; Ratio EC50 [39]: 1000; pKa [44]: 5.8; Efficacy [40]: 74%; Kp [45]: < 0.05; Efficacy [3]: 82%; IC50 [46]: 29 µM; IC50 [47]: 14 µM; IC50 [48]: 28 µM; IC50 [49]: 48 µM; EC50 [4]: 0.011 µM; CLint scaled [50]: 1.6 mL/min/kg; CLint scaled [51]: 1.4 mL/min/kg
